Laboratory results taken from PMC3985611 (Chemistry & biology, 2013).

Biological target: Hsp70 (Homo sapiens, UniProt P0DMV8)
Assay: competition of YK5-biotin pull-down in cancer cells
Type: cell-based

Chain of Hsp70 (P0DMV8 2-641): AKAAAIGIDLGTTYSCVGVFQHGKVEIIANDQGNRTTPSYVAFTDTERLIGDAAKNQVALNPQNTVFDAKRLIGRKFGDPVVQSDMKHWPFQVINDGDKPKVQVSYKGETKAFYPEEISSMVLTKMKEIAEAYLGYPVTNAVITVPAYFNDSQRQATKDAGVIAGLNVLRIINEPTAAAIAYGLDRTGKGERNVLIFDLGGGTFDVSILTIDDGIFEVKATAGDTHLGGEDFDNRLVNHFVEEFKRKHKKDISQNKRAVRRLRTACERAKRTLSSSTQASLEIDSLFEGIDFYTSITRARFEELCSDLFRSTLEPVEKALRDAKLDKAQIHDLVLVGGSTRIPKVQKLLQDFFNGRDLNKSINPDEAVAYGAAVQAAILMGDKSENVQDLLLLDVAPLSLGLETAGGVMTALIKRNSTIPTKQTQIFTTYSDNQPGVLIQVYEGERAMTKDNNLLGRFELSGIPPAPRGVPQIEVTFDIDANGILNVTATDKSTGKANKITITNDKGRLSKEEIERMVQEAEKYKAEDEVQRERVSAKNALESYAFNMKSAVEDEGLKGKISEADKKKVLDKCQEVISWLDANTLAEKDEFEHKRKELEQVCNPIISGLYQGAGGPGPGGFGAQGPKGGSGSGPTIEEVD

IC50: ~7 µM
SMILES: C=CC(=O)Nc1cc(N)nc(Sc2c(OC)nc(N3CCN(C)CC3)nc2OC)n1 [YK5]
